Laboratory results as given in patent publication US11766447B2, “3′3′-cyclic dinucleotide analogue comprising a cyclopentanyl modified nucleotide as sting modulator” (INSTITUTE OF ORGANIC CHEMISTRY AND BIOCHEMISTRY ASCR, V.V.I., priority 2019, dated 2023).
pEC50: −log10 of the molar value. Like-named read-outs stand apart in the source and are kept apart here.

How the values were obtained:
WT STING [1] = target: T1, WT STING (Homo sapiens, UniProt Q86WV6, H232R); assay: Digitonin assay using 293T wtSTING-FL reporter cells; type: cell-based; set-up: host or cells: 293T (ATCC CRL-3216), stably transfected, with 4xISRE firefly luciferase reporter; conditions: 293T wtSTING-FL cells, ISRE firefly luciferase; compounds in Digitonin buffer 30 minutes, then 5 hours; 8-point curve
Excerpt: Two complementary oligonucleotides of the sequence […] […] […] […] […] The oligonucleotides were mixed in equal molar amounts, hybridized, and cleaved by restriction endonucleases HindIII (cat. #. R0104S, NEB, Ipswich, USA) and BglII (cat. #R0144S, NEB, Ipswich, USA). Ultimately, they were ligated into plasmid pGL4.27 (cat. #E6651, Promega, Madison, USA) linearized with the same enzymes. As result the sequence with four ISRE sites was placed upstream of the minimum promoter of firefly luciferase reporter gene.
After 5 minutes incubation at room temperature (RT), 250 μL of the mixture was added dropwise to the cells in one well. Cells were incubated 36 hours at 37° C. with 5% CO2, and then detached with 0.05% Trypsin and 0.22 g/L EDTA (both cat. #L0941, Biowest, Riverside, USA).
Transfected cells were seeded onto poly-D-lysine coated six well plates at density 50,000 cells per 1 cm^2 in DMEM medium with high glucose containing 10% heat inactivated FBS, 30 μg/mL blasticidin (cat. #ant-b1-05, InvivoGen, San Diego, USA), 0.06 mg/ml Penicillin G and 0.1 mg/ml Streptomycin Sulfate (both cat. #. L0018, Biowest, Riverside, USA). The medium was replenished every 3-4 days until visible colonies of cells resistant to blasticidin were formed.
Blasticidin resistant cells stably expressing WT STING were further transfected with […] plasmid following the same procedure as described above. […] Homogeneous culture of stably double transfected cells was prepared by limiting dilution of cells in 96 well plates and wells with cells were selected that originated from a single cell.
The medium was removed next day and three fold serial dilutions of compounds in Digitonin buffer containing 50 mmol·l^−1 HEPES (cat. #H3375, Sigma Aldrich, Czech Republic) pH 7.0, 100 mmol·l^−1 KCl, 3 mmol·l^−1 MgCl2, 0.1 mmol·l^−1 DTT (cat. #D0632, Sigma Aldrich, Czech Republic), 85 mmol·l^−1 Sucrose (cat. #S7903, Sigma Aldrich, Czech Republic), 0.2% BSA (cat. #A2153, Sigma Aldrich, Czech Republic), 1 mmol·l^−1 ATP (cat. #A1852, Sigma Aldrich, Czech Republic), 0.1 mmol·l^−1 GTP (cat. #G8877, Sigma Aldrich, Czech Republic), and 10 μg/mL Digitonin A (cat. #D141, Sigma Aldrich, Czech Republic) were added to the cells. The buffer was removed after 30 minutes incubation at 37° C. with 5% CO2, the cells were washed once with 100 μl of cultivation medium, and 100 μl of medium was added to each well. The plates with cells were incubated for 5 hours at 37° C. with 5% CO2, 50 μl of the medium was removed and 30 μl of ONE-Glo™ Luciferase Assay System reagent (cat. #E6120, Promega, Madison, USA) was added to each well. Luminescence was read on Synergy H1 (Biotek, Winooski, USA). GraphPad Prism (La Jolla, USA) was used to calculate the 50% effective concentration ([…] from an 8-point dose-response curve.
Target sequence in this assay (Q86WV6 whole entry H232R): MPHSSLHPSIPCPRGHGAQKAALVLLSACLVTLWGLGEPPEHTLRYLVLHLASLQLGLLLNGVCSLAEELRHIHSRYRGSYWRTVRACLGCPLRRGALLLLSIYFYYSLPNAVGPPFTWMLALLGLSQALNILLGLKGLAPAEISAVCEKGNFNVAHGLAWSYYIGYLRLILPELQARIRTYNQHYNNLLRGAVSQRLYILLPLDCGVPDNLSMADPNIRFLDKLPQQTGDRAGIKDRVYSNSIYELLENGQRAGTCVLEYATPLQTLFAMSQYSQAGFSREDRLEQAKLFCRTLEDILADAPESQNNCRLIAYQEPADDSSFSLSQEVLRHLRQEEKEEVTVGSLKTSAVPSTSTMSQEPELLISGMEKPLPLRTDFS

WT STING [2] = target: T1, WT STING; assay: Differential scanning fluorimetry (DSF) with WT STING; type: binding; set-up: 8xHis (N, cleaved yes); SUMO (N, cleaved yes); made in house; host or cells: E. coli Rosetta-gami B (DE3); conditions: thermal shift vs apoprotein; 150 μM CDN; truncated human WT STING 0.1 mg/ml
Protocol: (§1) Purified PCR products were cleaved with restriction enzymes BamHI (cat. #R0136S, NEB, Ipswich, USA) and NotI (cat. #R0189S, NEB, Ipswich, USA) and cloned into the pSUMO vector linearized with the identical enzymes.
(§2) DNase I (cat. #D5025, Sigma Aldrich, Czech Republic) and RNase A (cat. #R6513, Sigma Aldrich, Czech Republic) were added (final concentration 50 μg/ml) together with MgCl2 (final concentration 5 mmol·l^−1) to the homogenate and bacteria were lysed using French Press G-M™ High-Pressure Cell Press Homogenizer (1500 psi, 3 cycles). […] The resin was poured into a chromatography column, washed with 50 ml buffer A (50 mmol·l^−1 TrisCl (pH 8.0), 800 mmol·l^−1 NaCl, 3 mmol·l^−1 β-mercaptoethanol; 10% glycerol; 20 mmol·l^−1 imidazol) and 8-His-SUMO tagged STING proteins were eluted with 15 ml buffer A containing 300 mmol·l^−1 imidazole. […] Proteins were concentrated with Amicon® Ultra-15 10 K device (cat. #UFC901008, Merck Millipore, Billerica, USA) and flash frozen in liquid N2.
(§3) 20 μL solutions of the reaction mixtures were pipetted in triplicates into 96 well optical reaction plates and thermal denaturation of samples were performed on real time PCR cycler (LightCycler® 480 Instrument II—Roche, Basel, Switzerland). The first derivative of the thermal denaturation curves was performed to calculate denaturing temperatures of STING-CDN complexes and STING apoproteins. The thermal shift for each CDN was calculated by subtracting the average denaturing temperature of STING apoprotein from the average denaturing temperature of STING CDN complex.
Target sequence in this assay (Q86WV6 140-343 H232R): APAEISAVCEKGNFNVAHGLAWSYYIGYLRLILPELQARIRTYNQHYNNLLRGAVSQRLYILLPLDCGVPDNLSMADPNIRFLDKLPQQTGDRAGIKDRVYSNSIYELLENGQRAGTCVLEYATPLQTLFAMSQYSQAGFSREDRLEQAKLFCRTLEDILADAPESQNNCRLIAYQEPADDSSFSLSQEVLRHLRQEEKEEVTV

AQ STING (G230A-R293Q) = target: T2, AQ STING (G230A-R293Q) (Homo sapiens, UniProt Q86WV6, G230A/H232R/R293Q); assay: Differential scanning fluorimetry (DSF) with AQ STING; type: binding; conditions: thermal shift vs apoprotein; 150 μM CDN; truncated human AQ STING 0.1 mg/ml
T2 construct: 8xHis (N, cleaved yes); SUMO (N, cleaved yes); made in house; host or cells: E. coli Rosetta-gami B (DE3)
Protocol: as §1, §2, §3

[3] = system: peripheral blood mononuclear cells (PBMC); assay: Peripheral blood mononuclear cell (PBMC) assay; type: cell-based; conditions: 1 h with compounds, washed, 15 hour incubation, average of one to four donors
Protocol: Selected compounds were tested in an in vitro peripheral blood mononuclear cell (PBMC) assay. […] Serially diluted tested compounds were added to wells in 50 μl of cultivation medium and cell were incubated with compounds for 1 h at 37° C. with 5% CO2. Plates with cells were then spun 500 g for 5 minutes and medium was removed. Cells were washed twice with the cell culture medium by the use of centrifugation and gently resuspended in 100 μl medium without compounds. After 15 hour incubation at 37° C. with 5% CO2, the cell culture medium was collected and the levels of interferon-alpha (INF-α), interferon-gamma (INF-γ) and tumor necrosis factor-alpha (TNF-α) were determined with ProcartaPlex Assays (ThermoFisher, Waltham, USA) and MAGPIX System (Merck KGaA, Darmstadt, Germany). […] Values reported are an average of runs from one to four donors.

T2 sequence (Q86WV6 140-343 G230A/H232R/R293Q): as the sequence (Q86WV6 140-343 H232R) above, with G91A, R154Q counted along it

| SMILES | pEC50 (WT STING [1]) | ΔTm at 150 µM (WT STING [2]) | ΔTm at 150 µM (AQ STING (G230A-R293Q)) | DSF ΔTm (° C.) WT STING (WT STING [2]) | further results |
| --- | --- | --- | --- | --- | --- |
| Nc1ncnc2c1ncn2[C@@H]1C[C@@H]2COP(=O)(O)OC3C(O)[C@H](n4cnc5c(N)ncnc54)C[C@@H]3COP(=O)(O)OC2C1O (stereo partly drawn) [Compound 133, (2R,3S,3aR,7aR,9R,10S,10aR,14aR)-2,9-bis(6-amino-9H-purin-9-yl)-3,5,10,12-tetrahydroxydodecahydrodicyclopenta[d,j][1,3,7,9]tetraoxa[2,8]-diphosphacyclododecine 5,12-dioxide] | 5.92 | 0.6 °C | 4.4 °C |  |  |
| Nc1nc2c(ncn2[C@@H]2O[C@@H]3COP(=O)(O)O[C@@H]4[C@@H](COP(=O)(O)O[C@H]3[C@H]2F)C[C@@H](n2cnc3c(N)ncnc32)[C@@H]4F)c(=O)[nH]1 [Compound 131, (1R,6R,8R,9R,10R,15R,17R,18S)-8-(2-amino-6-oxo-6,9-dihydro-1H-purin-9-yl)-17-(6-amino-9H-purin-9-yl)-9,18-difluoro-3,12-dihydroxy-2,4,7,11,13-pentaoxa-3λ^5,12λ^5-diphosphatricyclo[13.3.0.0^6,10]octadecane-3,12-dione] | 8.00 | 13.4 °C | 21.4 °C |  |  |
| Nc1nc2c(ncn2[C@@H]2C[C@@H]3COP(=O)(O)O[C@H]4[C@@H](O)[C@H](n5cnc6c(N)ncnc65)O[C@@H]4COP(=O)(O)O[C@H]3[C@H]2O)c(=O)[nH]1 [Compound 101, 2-amino-9-((2R,3R,3aS,7aR,9R,10S,10aR,14aR)-2-(6-amino-9H-purin-9-yl)-3,5,10,12-tetrahydroxy-5,12-dioxidodecahydro-2H-cyclopenta[d]furo[3,2-j][1,3,7,9]tetraoxa[2,8]diphosphacyclo-dodecin-9-yl)-1,9-dihydro-6H-purin-6-one] | 6.10 |  |  | 3.6 °C | DSF ΔTm (° C.) AQ STING (AQ STING (G230A-R293Q)): 11.3 °C |
| Nc1nc2c(ncn2[C@H]2CC3OP(=O)(O)OC[C@H]4C[C@@H](n5cnc6c(=O)[nH]c(N)nc65)C(O)C4OP(=O)(O)OC[C@H]3C2)c(=O)[nH]1 (stereo partly drawn) [Compound 123, 9,9′-((2R,3S,3aR,7aR,9R,10aS,14aR)-3,5,12-trihydroxy-5,12-dioxidododecahydrodicyclopenta[d,j][1,3,7,9]tetraoxa[2,8]-diphospha-cyclododecine-2,9-diyl)bis(2-amino-1,9-dihydro-6H-purin-6-one)] | 5.92 | 1.1 °C | 4.6 °C |  |  |
| Nc1nc2c(ncn2[C@@H]2C[C@@H]3COP(=O)(O)OC4C(F)[C@H](n5cnc6c(N)ncnc65)O[C@@H]4COP(=O)(O)OC3C2O)c(=O)[nH]1 (single isomer, unassigned) [Compound 103] | 8.00 |  |  | 7.6 °C | DSF ΔTm (° C.) AQ STING (AQ STING (G230A-R293Q)): 16.6 °C |
| Nc1nc2c(ncn2[C@H]2CC3OP(=O)(O)OC[C@H]4O[C@@H](n5cnc6c(N)ncnc65)CC4OP(=O)(O)OC[C@H]3C2)c(=O)[nH]1 (stereo partly drawn) [Compound 117, (6R,8R,15R,17R)-17-(2-amino-6-oxo-6,9-dihydro-1H-purin-9-yl)-8-(6-amino-9H-purin-9-yl)-3,12-dihydroxy-2,4,7,11,13-pentaoxa-3λ^5,12λ^5-diphosphatricyclo[13.3.0.0^6,10]octadecane-3,12-dione] | 6.70 | 2.2 °C | 7.1 °C |  |  |
| Nc1nc2c(ncn2[C@@H]2O[C@@H]3COP(=O)(O)O[C@H]4[C@@H](O)[C@H](n5cnc6c(=O)[nH]c(N)nc65)O[C@@H]4COP(=O)(O)O[C@H]3[C@H]2O)c(=O)[nH]1 [3′3′c-di-GMP, reference compound] | 5.24 |  |  | 2.6 °C | DSF ΔTm (° C.) AQ STING (AQ STING (G230A-R293Q)): 7.7 °C |
| Nc1nc2c(ncn2[C@@H]2O[C@@H]3COP(=O)(O)OC4C(O)[C@H](n5cnc6c(N)ncnc65)C[C@@H]4COP(=O)(O)OC3C2F)c(=O)[nH]1 (single isomer, unassigned) [Compound 109] | 8.00 |  | 18.5 °C | 8.9 °C |  |
| Nc1ncnc2c1ncn2[C@@H]1C[C@@H]2COP(=O)(S)OC3C(F)[C@H](n4cnc5c(N)ncnc54)O[C@@H]3COP(=O)(S)OC2C1F (single isomer, unassigned) [Compound 102c] | 8.00 |  |  |  |  |
| COC1C2OP(=O)(O)OC[C@H]3C[C@@H](n4cnc5c(=O)[nH]c(N)nc54)C(O)C3OP(=O)(O)OC[C@H]2O[C@H]1n1cnc2c(N)ncnc21 (stereo partly drawn) [Compound 118, (6R,8R,15R,17R)-17-(2-amino-6-oxo-6,9-dihydro-1H-purin-9-yl)-8-(6-amino-9H-purin-9-yl)-3,12,18-trihydroxy-9-methoxy-2,4,7,11,13-pentaoxa-3λ^5,12λ^5-diphosphatricyclo[13.3.0.0^6,10]octadecane-3,12-dione] |  | 0.5 °C | 1.5 °C |  |  |
| Nc1ncnc2c1ncn2[C@@H]1C[C@@H]2COP(=O)(S)O[C@H]3C[C@H](n4cnc5c(N)ncnc54)O[C@@H]3COP(=O)(S)O[C@H]2[C@H]1F (single isomer, unassigned) [Compound 142a] | 7.52 |  |  |  |  |
| CC(C)(C)C(=O)OCSP1(=O)OC[C@H]2O[C@@H](n3cnc4c(=O)[nH]c(N)nc43)[C@H](F)[C@@H]2OP(=O)(SCOC(=O)C(C)(C)C)OC[C@H]2C[C@@H](n3cnc4c(N)ncnc43)[C@H](F)[C@@H]2O1 (single isomer, unassigned) [Compound 150a] |  |  |  |  | EC50 ([3]; interferon-alpha level, read-out: PBMC EC50 (μM) IFN-α): 1 µM; EC50 ([3]; interferon-gamma level, read-out: PBMC EC50 (μM) IFN-γ): 0.7 µM; EC50 ([3]; tumor necrosis factor-alpha level, read-out: PBMC EC50 (μM) TNF-α): 0.7 µM |
